Reference: US20260262643A1, “HERBICIDAL BENZOXAZINES” (FMC CORPORATION, priority 2022, published 2026)

Assays:
kochia [1] = test: Test C postemergence; assay type: in vivo, Bassia scoparia; conditions: 10 days, 0 to 100 scale (0 no effect, 100 complete control)
Outline: (§1)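 Pre: seeds in loam/sand, directed soil spray. Post: 1–2 leaf plants, 2–10 cm. Cmpd in non-phytotoxic solvent + surfactant. Greenhouse 10 d; visual rating vs untreated, 0 = none, 100 = complete control.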

ducksalad = test: Test D flooded paddy test; assay type: in vivo, Heteranthera limosa; conditions: 250 g ai/ha, applied to paddy water, visual rating after 13 to 14 days, scale 0 to 100 (0 no effect, 100 complete control)
Outline: (§2)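 Post-flood water application at the 2-leaf stage; 3 cm flood depth kept constant; visual control rating 0–100 after 13–14 days greenhouse growth.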

corn [2] = test: Test C postemergence; assay type: in vivo, Zea mays; conditions: Zea mays, post-emergence, 240 h, 10 days, 0 to 100 scale (0 no effect, 100 complete control)
Outline: as §1

barnyardgrass [3] = test: Test C postemergence; assay type: in vivo, Echinochloa crusgalli; conditions: 10 days, 0 to 100 scale (0 no effect, 100 complete control)
Outline: as §1

soybean [4] = test: Test C preemergence; assay type: in vivo, Glycine max
Outline: as §1

pigweed, palmer [5] = test: Test C preemergence; assay type: in vivo, Amaranthus palmeri
Outline: as §1

wheat [6] = test: Test C preemergence; assay type: in vivo, Triticum aestivum
Outline: as §1

rice = test: Test D flooded paddy test; assay type: in vivo, Oryza sativa; conditions: 250 g ai/ha, applied to paddy water, visual rating after 13 to 14 days, scale 0 to 100 (0 no effect, 100 complete control)
Outline: as §2

ryegrass, Italian [7] = test: Test C preemergence; assay type: in vivo, Lolium multiflorum
Outline: as §1

barnyardgrass [8] = test: Test C preemergence; assay type: in vivo, Echinochloa crusgalli
Outline: as §1

ragweed [9] = test: Test C preemergence; assay type: in vivo, Ambrosia artemisiifolia
Outline: as §1

green foxtail [10] = test: Test C postemergence; assay type: in vivo, Setaria viridis; conditions: 10 days, 0 to 100 scale (0 no effect, 100 complete control)
Outline: as §1

kochia [11] = test: Test C preemergence; assay type: in vivo, Bassia scoparia
Outline: as §1

oat, wild [12] = test: Test C postemergence; assay type: in vivo, Avena fatua; conditions: 10 days, 0 to 100 scale (0 no effect, 100 complete control)
Outline: as §1

horseweed = test: Test C postemergence; assay type: in vivo, Erigeron canadensis; conditions: 10 days, 0 to 100 scale (0 no effect, 100 complete control)
Outline: as §1

oat, wild [13] = test: Test C preemergence; assay type: in vivo, Avena fatua
Outline: as §1

barnyardgrass [14] = test: Test D flooded paddy test; assay type: in vivo, Echinochloa crus-galli; conditions: 250 g ai/ha, applied to paddy water, visual rating after 13 to 14 days, scale 0 to 100 (0 no effect, 100 complete control)
Outline: as §2

soybean [15] = test: Test C postemergence; assay type: in vivo, Glycine max; conditions: 10 days, 0 to 100 scale (0 no effect, 100 complete control)
Outline: as §1

blackgrass [16] = test: Test C postemergence; assay type: in vivo, Alopecurus myosuroides; conditions: Alopecurus myosuroides, post-emergence, 240 h, 10 days, 0 to 100 scale (0 no effect, 100 complete control), read-out: Plant response rating, Blackgrass
Outline: as §1

ryegrass, Italian [17] = test: Test C postemergence; assay type: in vivo, Lolium multiflorum; conditions: 10 days, 0 to 100 scale (0 no effect, 100 complete control)
Outline: as §1

corn [18] = test: Test C preemergence; assay type: in vivo, Zea mays
Outline: as §1

pigweed, palmer [19] = test: Test C postemergence; assay type: in vivo, Amaranthus palmeri; conditions: 10 days, 0 to 100 scale (0 no effect, 100 complete control)
Outline: as §1

ragweed [20] = test: Test C postemergence; assay type: in vivo, Ambrosia artemisiifolia; conditions: 10 days, 0 to 100 scale (0 no effect, 100 complete control)
Outline: as §1

galium = test: Test C postemergence; assay type: in vivo, Galium aparine; conditions: 10 days, 0 to 100 scale (0 no effect, 100 complete control)
Outline: as §1

green foxtail [21] = test: Test C preemergence; assay type: in vivo, Setaria viridis
Outline: as §1

blackgrass [22] = test: Test C preemergence; assay type: in vivo, Alopecurus myosuroides
Outline: as §1

wheat [23] = test: Test C postemergence; assay type: in vivo, Triticum aestivum; conditions: 10 days, 0 to 100 scale (0 no effect, 100 complete control)
Outline: as §1

sedge, umbrella = test: Test D flooded paddy test; assay type: in vivo, Cyperus difformis; conditions: 250 g ai/ha, applied to paddy water, visual rating after 13 to 14 days, scale 0 to 100 (0 no effect, 100 complete control)
Outline: as §2

[24] = 500 g ai/ha, preemergence, 0 to 100 scale (0 no effect, 100 complete control)
[25] = Preemergence, 125 g ai/ha, 0 to 100 scale, 0 no effect, 100 complete control

Structure (SMILES): CCOC[C@H]1CN(C(=O)c2cc(-n3cnc(C(C)C)n3)ccc2C)c2cccc(Cl)c2O1 [Compound 340, [(2R)-8-chloro-2-(ethoxymethyl)-2,3-dihydro-1,4-benzoxazin-4-yl]-[5-(3-isopropyl-1,2,4-triazol-1-yl)-2-methyl-phenyl]methanone]
- Plant response rating, Kochia (kochia [1]; 500 g ai/ha, postemergence): 90
- Plant response rating, Kochia (kochia [1]; Postemergence, 125 g ai/ha): 90
- Plant response rating, Ducksalad (Flood) (ducksalad): 75
- Corn plant response rating (crop injury, 0 = no effect, 100 = complete kill) at 500 g/ha (corn [2]; 500 g ai/ha, postemergence): 60%
- Corn plant response rating (crop injury, 0 = no effect, 100 = complete kill) at 125 g/ha (corn [2]; Postemergence, 125 g ai/ha): 60%
- Plant response rating, Barnyardgrass (barnyardgrass [3]; 500 g ai/ha, postemergence): 60
- Plant response rating, Barnyardgrass (barnyardgrass [3]; Postemergence, 125 g ai/ha): 50
- Soybean plant response rating (soybean [4]; [24]): 100
- Plant response rating, Soybean (soybean [4]; [25]): 30
- Pigweed, Palmer plant response rating (pigweed, palmer [5]; [24]): 100
- Plant response rating, Pigweed, Palmer (pigweed, palmer [5]; [25]): 100
- Wheat plant response rating (wheat [6]; [24]): 80
- Plant response rating, Wheat (wheat [6]; [25]): 50
- Plant response rating, Rice (Flood) (rice): 0
- Ryegrass, Italian plant response rating (ryegrass, Italian [7]; [24]): 100
- Plant response rating, Ryegrass, Italian (ryegrass, Italian [7]; [25]): 90
- Barnyardgrass plant response rating (barnyardgrass [8]; [24]): 100
- Plant response rating, Barnyardgrass (barnyardgrass [8]; [25]): 90
- Ragweed plant response rating (ragweed [9]; [24]): 100
- Plant response rating, Ragweed (ragweed [9]; [25]): 80
- Plant response rating, Foxtail, Green (green foxtail [10]; 500 g ai/ha, postemergence): 70
- Plant response rating, Foxtail, Green (green foxtail [10]; Postemergence, 125 g ai/ha): 30
- Kochia plant response rating (kochia [11]; [24]): 100
- Plant response rating, Kochia (kochia [11]; [25]): 90
- Plant response rating, Oat, Wild (oat, wild [12]; 500 g ai/ha, postemergence): 20
- Plant response rating, Oat, Wild (oat, wild [12]; Postemergence, 125 g ai/ha): 10
- Plant response rating, Horseweed (horseweed; 500 g ai/ha, postemergence): 60
- Plant response rating, Horseweed (horseweed; Postemergence, 125 g ai/ha): 30
- Oat, Wild plant response rating (oat, wild [13]; [24]): 80
- Plant response rating, Oat, Wild (oat, wild [13]; [25]): 70
- Plant response rating, Barnyardgrass (Flood) (barnyardgrass [14]): 0
- Plant response rating, Soybean (soybean [15]; 500 g ai/ha, postemergence): 100
- Plant response rating, Soybean (soybean [15]; Postemergence, 125 g ai/ha): 100
- pest or weed control at 500 g/ha (blackgrass [16]; 500 g ai/ha, postemergence): 60%
- pest or weed control at 125 g/ha (blackgrass [16]; Postemergence, 125 g ai/ha): 20%
- Plant response rating, Ryegrass, Italian (ryegrass, Italian [17]; 500 g ai/ha, postemergence): 80
- Plant response rating, Ryegrass, Italian (ryegrass, Italian [17]; Postemergence, 125 g ai/ha): 60
- Corn plant response rating (corn [18]; [24]): 40
- Plant response rating, Corn (corn [18]; [25]): 20
- Plant response rating, Pigweed, Palmer (pigweed, palmer [19]; 500 g ai/ha, postemergence): 100
- Plant response rating, Pigweed, Palmer (pigweed, palmer [19]; Postemergence, 125 g ai/ha): 80
- Plant response rating, Ragweed (ragweed [20]; 500 g ai/ha, postemergence): 80
- Plant response rating, Ragweed (ragweed [20]; Postemergence, 125 g ai/ha): 70
- Plant response rating, Galium (galium; 500 g ai/ha, postemergence): 100
- Plant response rating, Galium (galium; Postemergence, 125 g ai/ha): 90
- Foxtail, Green plant response rating (green foxtail [21]; [24]): 100
- Plant response rating, Foxtail, Green (green foxtail [21]; [25]): 100
- Blackgrass plant response rating (blackgrass [22]; [24]): 90
- Plant response rating, Blackgrass (blackgrass [22]; [25]): 50
- Plant response rating, Wheat (wheat [23]; 500 g ai/ha, postemergence): 30
- Plant response rating, Wheat (wheat [23]; Postemergence, 125 g ai/ha): 10
- Plant response rating, Sedge, Umbrella (Flood) (sedge, umbrella): 60
